Laboratory results: ChEMBL document CHEMBL3885881, “DrugMatrix”

Species on record: Rattus norvegicus
Experiment: DrugMatrix - Regimen: Daily Repeat
Type: toxicity, organism-based, Sprague-Dawley
Design: regimen Daily Repeat, gender Male, age 6-8 weeks
Conditions: in vivo, iv, 34 mg/kg, dose level High, vehicle 100 % SALINE; for ABSOLUTE BASOPHIL / ABSOLUTE EOSINOPHIL / ABSOLUTE LYMPHOCYTE / ABSOLUTE MONOCYTE / ABSOLUTE SEGMENTED NEUTROPHIL / BASOPHIL / EOSINOPHIL / ERYTHROCYTE COUNT / HEMATOCRIT / HEMOGLOBIN / LEUKOCYTE COUNT / LYMPHOCYTE / MEAN CORPUSCULAR HEMOGLOBIN / MEAN CORPUSCULAR HEMOGLOBIN CONCENTRATION / MEAN CORPUSCULAR VOLUME / MONOCYTE / NEUTROPHIL / NUCLEATED RED BLOOD CELLS / PLATELET COUNT: tissue Blood; for ALANINE AMINOTRANSFERASE / ALBUMIN / ALKALINE PHOSPHATASE / ASPARTATE AMINOTRANSFERASE / BLOOD UREA NITROGEN / CARBON DIOXIDE / CHLORIDE / CHOLESTEROL / CREATINE PHOSPHOKINASE / CREATININE / GLUCOSE / LACTATE DEHYDROGENASE / LIPASE / PHOSPHORUS / POTASSIUM / SODIUM / TOTAL BILIRUBIN / TOTAL PROTEIN / URIC ACID: tissue Plasma

CN[C@@H]1[C@@H](O)[C@@H](O[C@@H]2[C@@H](O)[C@H](O[C@H]3OC(CN)=CC[C@H]3N)[C@@H](N)C[C@H]2N)OC[C@]1(C)O [SISOMICIN]
ABSOLUTE BASOPHIL (72 h, time 3 day): 0 CELLS/uL
ABSOLUTE EOSINOPHIL (72 h, time 3 day): 0 CELLS/uL
ABSOLUTE LYMPHOCYTE (72 h, time 3 day): 14608 CELLS/uL
ABSOLUTE MONOCYTE (72 h, time 3 day): 68 CELLS/uL
ABSOLUTE SEGMENTED NEUTROPHIL (72 h, time 3 day): 824 CELLS/uL
BASOPHIL (72 h, time 3 day): 0%
EOSINOPHIL (72 h, time 3 day): 0%
ERYTHROCYTE COUNT (72 h, time 3 day): 5.47 x10E6/uL
HEMATOCRIT (72 h, time 3 day): 35.6%
HEMOGLOBIN (72 h, time 3 day): 14.07 G/DL
LEUKOCYTE COUNT (72 h, time 3 day): 15.5 x10E3/uL
LYMPHOCYTE (72 h, time 3 day): 94.67%
MEAN CORPUSCULAR HEMOGLOBIN (72 h, time 3 day): 25.73 pg
MEAN CORPUSCULAR HEMOGLOBIN CONCENTRATION (72 h, time 3 day): 39.53 G/DL
MEAN CORPUSCULAR VOLUME (72 h, time 3 day): 65.13 fL
MONOCYTE (72 h, time 3 day): 0.33%
NEUTROPHIL (72 h, time 3 day): 5%
NUCLEATED RED BLOOD CELLS (72 h, time 3 day): 0 /100WBC
PLATELET COUNT (72 h, time 3 day): 1451.67 x10E3/uL
ALANINE AMINOTRANSFERASE (72 h, time 3 day): 52.33 u/L
ALBUMIN (72 h, time 3 day): 4.2 G/DL
ALKALINE PHOSPHATASE (72 h, time 3 day): 295 u/L
ASPARTATE AMINOTRANSFERASE (72 h, time 3 day): 81.67 u/L
BLOOD UREA NITROGEN (72 h, time 3 day): 17.67 mg/dL
CARBON DIOXIDE (72 h, time 3 day): 24 mmol/L
CHLORIDE (72 h, time 3 day): 102.33 MEQ/L
CHOLESTEROL (72 h, time 3 day): 66.33 mg/dL
CREATINE PHOSPHOKINASE (72 h, time 3 day): 204.33 u/L
CREATININE (72 h, time 3 day): 0.22 mg/dL
GLUCOSE (72 h, time 3 day): 150.67 mg/dL
LACTATE DEHYDROGENASE (72 h, time 3 day): 135.33 u/L
LIPASE (72 h, time 3 day): 10.33 u/L
PHOSPHORUS (72 h, time 3 day): 11.77 mg/dL
POTASSIUM (72 h, time 3 day): 6.49 MEQ/L
SODIUM (72 h, time 3 day): 144.2 MEQ/L
TOTAL BILIRUBIN (72 h, time 3 day): 0.17 mg/dL
TOTAL PROTEIN (72 h, time 3 day): 6 G/DL
URIC ACID (72 h, time 3 day): 1.27 mg/dL
ABSOLUTE BASOPHIL (120 h, time 5 day): 0 CELLS/uL
ABSOLUTE EOSINOPHIL (120 h, time 5 day): 136 CELLS/uL
ABSOLUTE LYMPHOCYTE (120 h, time 5 day): 16493.67 CELLS/uL
ABSOLUTE MONOCYTE (120 h, time 5 day): 81 CELLS/uL
ABSOLUTE SEGMENTED NEUTROPHIL (120 h, time 5 day): 1222.67 CELLS/uL
BASOPHIL (120 h, time 5 day): 0%
EOSINOPHIL (120 h, time 5 day): 1%
ERYTHROCYTE COUNT (120 h, time 5 day): 5.67 x10E6/uL
HEMATOCRIT (120 h, time 5 day): 37.07%
HEMOGLOBIN (120 h, time 5 day): 14.6 G/DL
LEUKOCYTE COUNT (120 h, time 5 day): 17.93 x10E3/uL
LYMPHOCYTE (120 h, time 5 day): 92%
MEAN CORPUSCULAR HEMOGLOBIN (120 h, time 5 day): 25.73 pg
MEAN CORPUSCULAR HEMOGLOBIN CONCENTRATION (120 h, time 5 day): 39.43 G/DL
MEAN CORPUSCULAR VOLUME (120 h, time 5 day): 65.3 fL
MONOCYTE (120 h, time 5 day): 0.33%
NEUTROPHIL (120 h, time 5 day): 6.67%
NUCLEATED RED BLOOD CELLS (120 h, time 5 day): 0 /100WBC
PLATELET COUNT (120 h, time 5 day): 1387.67 x10E3/uL
ALANINE AMINOTRANSFERASE (120 h, time 5 day): 44 u/L
ALBUMIN (120 h, time 5 day): 4.3 G/DL
ALKALINE PHOSPHATASE (120 h, time 5 day): 391.67 u/L
ASPARTATE AMINOTRANSFERASE (120 h, time 5 day): 71.67 u/L
BLOOD UREA NITROGEN (120 h, time 5 day): 15.67 mg/dL
CARBON DIOXIDE (120 h, time 5 day): 22.33 mmol/L
CHLORIDE (120 h, time 5 day): 103.67 MEQ/L
CHOLESTEROL (120 h, time 5 day): 57.33 mg/dL
CREATINE PHOSPHOKINASE (120 h, time 5 day): 158 u/L
CREATININE (120 h, time 5 day): 0.22 mg/dL
GLUCOSE (120 h, time 5 day): 155 mg/dL
LACTATE DEHYDROGENASE (120 h, time 5 day): 130.67 u/L
LIPASE (120 h, time 5 day): 10 u/L
PHOSPHORUS (120 h, time 5 day): 12.63 mg/dL
POTASSIUM (120 h, time 5 day): 6.57 MEQ/L
SODIUM (120 h, time 5 day): 145.93 MEQ/L
TOTAL BILIRUBIN (120 h, time 5 day): 0.27 mg/dL
TOTAL PROTEIN (120 h, time 5 day): 6.17 G/DL
URIC ACID (120 h, time 5 day): 1.63 mg/dL
